Values quoted from earlier work, collected in PMC3688238, “The effect of different dosing regimens of motesanib on the gallbladder: a randomized phase 1b study in patients with advanced solid tumors” (BMC Cancer, 2013).
Where two headings read alike, the source gives them in different places.

Tested on: gallbladder
Details: cited from earlier work

In the case of COc1cc2c(Oc3ccc4[nH]c(C)cc4c3F)ncnc2cc1OCCCN1CCCC1 [Cediranib], the Adverse events reported (phase 1 study, ref Laurie et al. [21]) is given as “Acute cholecystitis” and the Adverse events reported (phase 2 study, ref Batchelor et al. [22]) is given as “Gallbladder obstruction, abdominal pain”.
For Cc1ccc(NC(=O)c2ccc(CN3CCN(C)CC3)cc2)cc1Nc1nccc(-c2cccnc2)n1 [Imatinib], the Adverse events reported (case report, ref Breccia et al. [37]) is given as “Gallstones, gallbladder wall thickening, abdominal pain”, the Adverse events reported (phase 1 study, ref Grant et al. [24]) is given as “Cholecystitis” and the Adverse events reported (single-arm study, ref Yeh et al. [23]) is given as “Gallstones”.
For CNC(=O)c1cc(Oc2ccc(NC(=O)Nc3ccc(Cl)c(C(F)(F)F)c3)cc2)ccn1 [Sorafenib], the Adverse events reported (case report, ref Sanda et al. [20]) is given as “Right upper abdominal pain, gallbladder edema, acute acalculous cholecystitis”, the Adverse events reported (ref Nexavar European public assessment report [26]) is given as “Cholecystitis, cholangitis” and the Adverse events reported (ref Nexavar US prescribing information [25]) is given as “Cholecystitis, cholangitis”.
In the case of CCN(CC)CCNC(=O)c1c(C)[nH]c(/C=C2\C(=O)Nc3ccc(F)cc32)c1C [Sunitinib], the Adverse events reported (case report, ref De Lima Lopes, Jr., et al. [18]) is listed as “Acute emphysematous cholecystitis, right upper abdominal pain, gallbladder distension”, the Adverse events reported (case report, ref Gomez-Abuin et al. [19]) is listed as “Acute acalculous cholecystitis, right upper abdominal pain, gallbladder wall thickening” and the Adverse events reported (single-arm study, ref Motzer et al. [17]) is listed as “Acute cholecystitis”.
